{
  "source": "patent US20150208691A1",
  "about": "“NOVEL USE OF ALKOXYLATES OF MONO- AND POLYVALENT ALCOHOLS” (AB AGRI LIMITED, priority 2012, published 2015)",
  "origin": "cited, not measured here",
  "key": {"methane emissions [1]": {"system": "methane emissions", "settings": "cows, compared with sheep"}, "methane emissions [2]": {"system": "methane emissions", "settings": "sheep"}},
  "note": "Read-outs that look alike come from different tables or passages of the source.",
  "data": [
    {"smiles": "C=CCS[S+]([O-])CC=C", "note": "(centres unmarked) [Allicin]", "values": [
      {"measurement": "reduction of methane emissions", "setting": "methane emissions [1]", "result": "not as effective"},
      {"measurement": "reduction of methane emissions", "setting": "methane emissions [2]", "result": 20, "unit": "%"}
    ]}
  ]
}
